# Data reported in US20230047788A1, “COMPOSITIONS COMPRISING 5-CHOLESTEN-3, 25-DIOL, 3-SULFATE (25HC3S) OR PHARMACEUTICALLY ACCEPTABLE SALT THEREOF AND AT LEAST ONE CYCLIC OLIGOSACCHARIDE” (Virginia Commonwealth University, priority 2016, published 2023).
# Experiment: Stability testing for 25HC3S sodium salt for injection, 30 mg/mL after constitution
# Assay type: physicochemical
# Conditions: for Degree of Coloration of Liquids: BY = brown-yellow
# Description: Sterile water for injection, USP (6.14 kg) was added into a 10L stainless steel vessel. […] HPbCD, NF (1851.85 g) was added in small portions over 15 minutes with slow stirring into the beaker. The stirring was increased to 250-350 rpm for an additional minimum 30 minutes to form a clear solution. The solution was filtered through a 0.22 micron filter. Filtered vehicle (7 mL) was filled into 10 mL glass vials, which were sealed with 20 mm stoppers, and crimp sealed. The vehicle vials were sterilized with gamma irradiation at approximately 28-32 kGy.
# 25HC3S sodium salt was micronized by passing through a Fluid Energy Model 00 Jet-O-Mizer Jet Mill. Micronized drug substance (186 mg) was added into a 10 mL glass vial, sealed with 20 mm stoppers, and crimp sealed. The 25HC3S powder vials were sterilized with gamma irradiation at approximately 28-32 kGy
# Sterile vehicle (6.0 mL) comprised of 250 mg/mL HPbCD and 10 mM phosphate buffer was added to a vial of 25HC3S micronized powder. The mixture was shaken for 15 minutes to prepare a solution resulting in a 25HC3S sodium salt concentration of 30 mg/mL (allowing for 3% dilution upon the dissolution of drug).
# Stability data for 6 months at 2-8° C. to 40° C./75% RH for 25HC3S for injection, 30 mg/mL after constitution, are listed in Table 5. This lot of 25HC3S powder, and the vehicle used to constitute it, were gamma sterilized at approximately 28-32 kGy. The data supports a 12 month retest date when stored at 2-8° C.
structure (smiles),measurement,setting,value
"C[C@H](CCCC(C)(C)O)[C@H]1CC[C@H]2[C@@H]3CC=C4C[C@@H](OS(=O)(=O)[O-])CC[C@]4(C)[C@H]3CC[C@]12C.[Na+] [25HC3S, 5-cholesten-3, 25-diol, 3-sulfate]",% Individual Unspecified Degradant RRT = 0.60,"2-8°C, 0 months",0.2%
same,% Individual Unspecified Degradant RRT = 0.64,"2-8°C, 0 months",0.4%
same,% Individual Unspecified Degradant RRT = 2.74,"2-8°C, 0 months",0.4%
same,% Individual Unspecified Degradant RRT = 3.77,"2-8°C, 0 months",0.3%
same,% Total Degradation Products,"2-8°C, 0 months",2.5%
same,% Water Content,"2-8°C, 0 months",6.23%
same,Appearance,"2-8°C, 0 months",White powder
same,Assay (label strength of 30 mg/mL),"2-8°C, 0 months",Mean: 98.7%
same,Osmolality,"2-8°C, 0 months",321 mmol/kg
same,pH,"2-8°C, 0 months",6.62
same,Degree of Coloration of Liquids,"2-8°C, 0 months",BY6
same,% Individual Unspecified Degradant RRT = 0.60,"2-8°C, 3 months",0.2%
same,% Individual Unspecified Degradant RRT = 0.64,"2-8°C, 3 months",0.4%
same,% Individual Unspecified Degradant RRT = 2.74,"2-8°C, 3 months",0.4%
same,% Individual Unspecified Degradant RRT = 3.77,"2-8°C, 3 months",0.3%
same,% Total Degradation Products,"2-8°C, 3 months",2.8%
same,% Water Content,"2-8°C, 3 months",5.62%
same,Assay (label strength of 30 mg/mL),"2-8°C, 3 months",96.7%
same,Osmolality,"2-8°C, 3 months",322 mmol/kg
same,pH,"2-8°C, 3 months",5.82
same,% Individual Unspecified Degradant RRT = 0.60,"2-8°C, 6 months",0.3%
same,% Individual Unspecified Degradant RRT = 0.64,"2-8°C, 6 months",0.4%
same,% Individual Unspecified Degradant RRT = 2.74,"2-8°C, 6 months",0.4%
same,% Individual Unspecified Degradant RRT = 3.77,"2-8°C, 6 months",0.3%
same,% Total Degradation Products,"2-8°C, 6 months",3.0%
same,% Water Content,"2-8°C, 6 months",6.13%
same,Assay (label strength of 30 mg/mL),"2-8°C, 6 months",100.0%
same,Osmolality,"2-8°C, 6 months",323 mmol/kg
same,pH,"2-8°C, 6 months",5.34
same,Degree of Coloration of Liquids,"2-8°C, 6 months",BY6
same,% Individual Unspecified Degradant RRT = 0.60,"25°C/60% RH, 1 month",0.3%
same,% Individual Unspecified Degradant RRT = 0.64,"25°C/60% RH, 1 month",0.4%
same,% Individual Unspecified Degradant RRT = 2.74,"25°C/60% RH, 1 month",0.4%
same,% Individual Unspecified Degradant RRT = 3.77,"25°C/60% RH, 1 month",0.3%
same,% Total Degradation Products,"25°C/60% RH, 1 month",2.9%
same,% Water Content,"25°C/60% RH, 1 month",5.29%
same,Assay (label strength of 30 mg/mL),"25°C/60% RH, 1 month",98.3%
same,Osmolality,"25°C/60% RH, 1 month",330 mmol/kg
same,pH,"25°C/60% RH, 1 month",5.18
same,% Individual Unspecified Degradant RRT = 0.60,"25°C/60% RH, 3 months",0.3%
same,% Individual Unspecified Degradant RRT = 0.64,"25°C/60% RH, 3 months",0.4%
same,% Individual Unspecified Degradant RRT = 2.74,"25°C/60% RH, 3 months",0.4%
same,% Individual Unspecified Degradant RRT = 3.77,"25°C/60% RH, 3 months",0.3%
same,% Total Degradation Products,"25°C/60% RH, 3 months",2.9%
same,% Water Content,"25°C/60% RH, 3 months",5.40%
same,Assay (label strength of 30 mg/mL),"25°C/60% RH, 3 months",96.0%
same,Osmolality,"25°C/60% RH, 3 months",322 mmol/kg
same,Degree of Coloration of Liquids,"25°C/60% RH, 3 months",BY5
same,% Individual Unspecified Degradant RRT = 0.60,"25°C/60% RH, 6 months",0.4%
same,% Individual Unspecified Degradant RRT = 0.64,"25°C/60% RH, 6 months",0.4%
same,% Individual Unspecified Degradant RRT = 2.74,"25°C/60% RH, 6 months",0.4%
same,% Individual Unspecified Degradant RRT = 3.77,"25°C/60% RH, 6 months",0.3%
same,% Total Degradation Products,"25°C/60% RH, 6 months",3.0%
same,% Water Content,"25°C/60% RH, 6 months",5.65%
same,Assay (label strength of 30 mg/mL),"25°C/60% RH, 6 months",96.2%
same,Osmolality,"25°C/60% RH, 6 months",319 mmol/kg
same,Degree of Coloration of Liquids,"25°C/60% RH, 6 months",BY5
same,% Individual Unspecified Degradant RRT = 0.60,"40°C/75% RH, 1 month",0.3%
same,% Individual Unspecified Degradant RRT = 0.64,"40°C/75% RH, 1 month",0.4%
same,% Individual Unspecified Degradant RRT = 2.74,"40°C/75% RH, 1 month",0.4%
same,% Individual Unspecified Degradant RRT = 3.77,"40°C/75% RH, 1 month",0.3%
same,% Total Degradation Products,"40°C/75% RH, 1 month",2.9%
same,% Water Content,"40°C/75% RH, 1 month",5.03%
same,Assay (label strength of 30 mg/mL),"40°C/75% RH, 1 month",95.8%
same,Osmolality,"40°C/75% RH, 1 month",330 mmol/kg
same,% Individual Unspecified Degradant RRT = 0.60,"40°C/75% RH, 3 months",0.3%
same,% Individual Unspecified Degradant RRT = 0.64,"40°C/75% RH, 3 months",0.4%
same,% Individual Unspecified Degradant RRT = 2.74,"40°C/75% RH, 3 months",0.5%
same,% Individual Unspecified Degradant RRT = 3.77,"40°C/75% RH, 3 months",0.4%
same,% Total Degradation Products,"40°C/75% RH, 3 months",3.3%
same,% Water Content,"40°C/75% RH, 3 months",5.33%
same,Assay (label strength of 30 mg/mL),"40°C/75% RH, 3 months",96.2%
same,Osmolality,"40°C/75% RH, 3 months",327 mmol/kg
same,% Individual Unspecified Degradant RRT = 0.60,"40°C/75% RH, 6 months",0.4%
same,% Individual Unspecified Degradant RRT = 0.64,"40°C/75% RH, 6 months",0.5%
same,% Individual Unspecified Degradant RRT = 2.74,"40°C/75% RH, 6 months",0.4%
same,% Individual Unspecified Degradant RRT = 3.77,"40°C/75% RH, 6 months",0.3%
same,% Total Degradation Products,"40°C/75% RH, 6 months",2.8%
same,% Water Content,"40°C/75% RH, 6 months",6.34%
same,Assay (label strength of 30 mg/mL),"40°C/75% RH, 6 months",97.1%
same,Osmolality,"40°C/75% RH, 6 months",324 mmol/kg
same,retest date supported by the data,stored at 2-8°C,12 month
